Data published in patent US20180370927A1, “MICROBIOCIDAL OXADIAZOLE DERIVATIVES” (SYNGENTA PARTICIPATIONS AG, priority 2015, published 2018).

How the values were obtained:
[1] = system: Phakopsora pachyrhizi; experiment: Phakopsora pachyrhizi / soybean / leaf disc preventative (Asian soybean rust); assay type: in vivo; settings: foliar, 200 ppm in the applied formulation, soybean leaf disks, assessed 12 to 14 days after application, read-out: disease control compared to untreated control leaf disks
Description: Leaf disks or leaf segments of various plant species are cut from plants grown in a greenhouse. The cut leaf disks or segments are placed in multiwell plates (24-well format) onto water agar. The leaf disks are sprayed with a test solution before (preventative) or after (curative) inoculation. Compounds to be tested are prepared as DMSO solutions (max. 10 mg/mL) which are diluted to the appropriate concentration with 0.025% Tween20 just before spraying. The inoculated leaf disks or segments are incubated under defined conditions (temperature, relative humidity, light, etc.) according to the respective test system. A single evaluation of disease level is carried out 3 to 14 days after inoculation, depending on the pathosystem. Percent disease control relative to the untreated check leaf disks or segments is then calculated.
Example 3: Fungicidal Activity Against Phakopsora pachyrhizi/Soybean/Leaf Disc Preventative (Asian Soybean Rust)
Soybean leaf disks are placed on water agar in multiwell plates (24-well format) and sprayed with the formulated test compound diluted in water. One day after application leaf discs are inoculated by spraying a spore suspension on the lower leaf surface. After an incubation period in a climate cabinet of 24-36 hours in darkness at 20° C. and 75% relative humidity leaf disc are kept at 20° C. with 12 hours light/day and 75% relative humidity. The activity of a compound is assessed as percent disease control compared to untreated when an appropriate level of disease damage appears in untreated check leaf disks (12 to 14 days after application).
The following compounds at 200 ppm in the applied formulation give at least 80% disease control in this test when compared to untreated control leaf disks under the same conditions, which show extensive disease development.

[2] = system: Puccinia recondita f. Sp. Tritici; experiment: Puccinia recondita f. sp. tritici / wheat / leaf disc preventative (brown rust); assay type: in vivo; settings: foliar, 200 ppm in the applied formulation, wheat leaf segments, preventative, assessed 7 to 9 days after application, read-out: disease control compared to untreated control leaf disks
Outline: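 Wheat cv. Kanzler leaf segments on agar sprayed with formulated compound in water, inoculated with rust spores 1 day later. Incubated at 19° C, 75% rh, 12 h light/12 h dark; percent disease control versus untreated scored 7 to 9 days after application; tested at 200 ppm.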

[3] = system: Glomerella lacenarium (Colletotrichum lacenarium); experiment: Glomerella lacenarium (Colletotrichum lacenarium) liquid culture / cucumber / preventative (anthracnose); assay type: cell-based; settings: 20 ppm in the applied formulation, liquid culture in PDB, 24° C., 3 to 4 days after application, read-out: disease control (inhibition of growth, photometric) compared to untreated control
Outline: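 Cryostored conidia in potato dextrose broth added to DMSO compound solution in microtiter plates, incubated at 24° C. Growth inhibition read photometrically 3 to 4 days after application, as percent control versus untreated check; compounds tested at 20 ppm.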

[4] = system: Puccinia recondita f. Sp. Tritici; experiment: Puccinia recondita f. sp. tritici / wheat / leaf disc curative (brown rust); assay type: in vivo; settings: foliar, 200 ppm in the applied formulation, wheat leaf segments, curative (applied 1 day after inoculation), assessed 6 to 8 days after application, read-out: disease control compared to untreated control leaf disks
Outline: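 Wheat cv. Kanzler leaf segments on agar were inoculated with spores, kept dark at 19° C, 75% RH, then sprayed with diluted formulated compound 1 day after inoculation (curative). Incubation continued at 19° C, 75% RH, 12 h light/12 h dark, with percent disease control versus untreated scored 6 to 8 days after application.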

O=C(NCc1ccc(-c2noc(C(F)(F)F)n2)cc1F)C(=O)c1ccccc1 [Compound 1.37, N-[[2-fluoro-4-[5-(trifluoromethyl)-1,2,4-oxadiazol-3-yl]phenyl]methyl]-2-oxo-2-phenyl-acetamide]
≥ 80%: pest or weed control at 200 ppm [1] | pest or weed control at 200 ppm [2] | inhibition at 20 ppm [3] | pest or weed control at 200 ppm [4]

CC(C)CC(=O)C(=O)NCc1ccc(-c2noc(C(F)(F)F)n2)cc1F [Compound 1.38, N-[[2-fluoro-4-[5-(trifluoromethyl)-1,2,4-oxadiazol-3-yl]phenyl]methyl]-4-methyl-2-oxo-pentanamide]
≥ 80%: pest or weed control at 200 ppm [1] | pest or weed control at 200 ppm [2] | inhibition at 20 ppm [3] | pest or weed control at 200 ppm [4]

O=C(NCc1ccc(-c2noc(C(F)(F)F)n2)cc1F)C(=O)c1cccs1 [Compound 1.39, N-[[2-fluoro-4-[5-(trifluoromethyl)-1,2,4-oxadiazol-3-yl]phenyl]methyl]-2-oxo-2-(2-thienyl)acetamide]
≥ 80%: pest or weed control at 200 ppm [1] | pest or weed control at 200 ppm [2] | inhibition at 20 ppm [3] | pest or weed control at 200 ppm [4]

CC(C)(C)C(=O)C(=O)NCc1ccc(-c2noc(C(F)(F)F)n2)cc1F [Compound 1.40, N-[[2-fluoro-4-[5-(trifluoromethyl)-1,2,4-oxadiazol-3-yl]phenyl]methyl]-3,3-dimethyl-2-oxo-butanamide]
≥ 80%: pest or weed control at 200 ppm [1] | pest or weed control at 200 ppm [2] | inhibition at 20 ppm [3] | pest or weed control at 200 ppm [4]

CCC(=O)C(=O)NCc1ccc(-c2noc(C(F)(F)F)n2)cc1F [Compound 1.41, N-[[2-fluoro-4-[5-(trifluoromethyl)-1,2,4-oxadiazol-3-yl]phenyl]methyl]-2-oxo-butanamide]
≥ 80%: pest or weed control at 200 ppm [1] | pest or weed control at 200 ppm [2] | inhibition at 20 ppm [3] | pest or weed control at 200 ppm [4]

CC(C)CC(=O)C(=O)NCc1ccc(-c2noc(C(F)(F)F)n2)c(F)c1 [Compound 1.43, N-[[3-fluoro-4-[5-(trifluoromethyl)-1,2,4-oxadiazol-3-yl]phenyl]methyl]-4-methyl-2-oxo-pentanamide]
≥ 80%: pest or weed control at 200 ppm [1] | pest or weed control at 200 ppm [2] | inhibition at 20 ppm [3] | pest or weed control at 200 ppm [4]

O=C(NCc1ccc(-c2noc(C(F)(F)F)n2)c(F)c1)C(=O)c1cccs1 [Compound 1.44, N-[[3-fluoro-4-[5-(trifluoromethyl)-1,2,4-oxadiazol-3-yl]phenyl]methyl]-2-oxo-2-(2-thienyl)acetamide]
≥ 80%: pest or weed control at 200 ppm [1] | pest or weed control at 200 ppm [2] | inhibition at 20 ppm [3] | pest or weed control at 200 ppm [4]

CC(C)(C)C(=O)C(=O)NCc1ccc(-c2noc(C(F)(F)F)n2)c(F)c1 [Compound 1.45, N-[[3-fluoro-4-[5-(trifluoromethyl)-1,2,4-oxadiazol-3-yl]phenyl]methyl]-3,3-dimethyl-2-oxo-butanamide]
≥ 80%: pest or weed control at 200 ppm [1] | pest or weed control at 200 ppm [2] | inhibition at 20 ppm [3] | pest or weed control at 200 ppm [4]

CC(C)CC(=O)C(=O)NCc1ccc(-c2noc(C(F)(F)F)n2)c(F)c1F [Compound 1.47, N-[[2,3-difluoro-4-[5-(trifluoromethyl)-1,2,4-oxadiazol-3-yl]phenyl]methyl]-4-methyl-2-oxo-pentanamide]
≥ 80%: pest or weed control at 200 ppm [1] | pest or weed control at 200 ppm [2] | inhibition at 20 ppm [3] | pest or weed control at 200 ppm [4]

CC(C)(C)C(=O)C(=O)NCc1ccc(-c2noc(C(F)(F)F)n2)c(F)c1F [Compound 1.49, N-[[2,3-difluoro-4-[5-(trifluoromethyl)-1,2,4-oxadiazol-3-yl]phenyl]methyl]-3,3-dimethyl-2-oxo-butanamide]
≥ 80%: pest or weed control at 200 ppm [1] | pest or weed control at 200 ppm [2] | inhibition at 20 ppm [3] | pest or weed control at 200 ppm [4]
